# Results from patent US20210292807A1, “METHOD FOR TESTING ANTIMICROBIAL SUSCEPTIBILITY” (priority 2017, published 2021).
# What was measured:
# Klebsiella isolates [1] = test: Broth microdilution MIC (MICBMD) of Klebsiella isolates; format: cell-based, Klebsiella pneumoniae, Klebsiella oxytoca; details: limited clinical screen concentrations
# Experimental: (§1) An aliquot of bacterial suspension was added to 50 mL centrifuge tubes (Corning, N.Y.) containing 9 mL of pre-warmed (37° C.) filtered MHB to produce a final density of 5×10^5-1×10^6 bacteria per mL. This suspension was incubated at 37° C. with shaking at 100 RPM for 30 minutes to obtain an actively dividing culture. An aliquot of antibiotic working solution from the previously described dilution series (appropriate to the concentration tested) was then added to each tube before a further 30-minute incubation with shaking, during which time a microbroth dilution (MBD) plate was prepared for overnight incubation at 37° C. as previously described in Clinical and Laboratory Standards Institute (2015) Performance Standards for Antimicrobial Susceptibility Testing: Informational Supplement. CLSI document M100-S25. Clinical and Laboratory Standards Institute, 950, West Valley Road, Suite 2500, Wayne, Pa., 19087, USA.
# FIG. 2 outlines the work flow as exemplified herein. In brief, an isolate was retrieved from cryopreservation, plated onto blood agar to ensure purity, and inoculated into trypticase soy broth (TSB, described above) overnight to simulate biological fluids. A 1 mL aliquot of this overnight suspension was inoculated into Mueller-Hinton broth (MHB) [comprising about 300.0 g beef extract (dehydrated infusion from), about 17.5 g casein hydrolysate, about 1.5 g starch, reconstituted in about 1 L of water, pH 7.3±0.1 as measured and kept at 25° C.] and incubated at 37° C. to ensure bacteria were actively dividing. One aliquot was subjected to traditional microbroth dilution (MBD) susceptibility testing.
# Klebsiella isolates [2] = test: Acoustic flow cytometry-assisted susceptibility test (FAST), MICFAST and S/NS, Klebsiella isolates; format: cell-based, Klebsiella pneumoniae, Klebsiella oxytoca; details: limited clinical screen concentrations
# Experimental: A 1 mL aliquot of bacterial suspension was centrifuged, washed and resuspended in 1 mL filtered Hank's Buffered Salt Solution (HBSS; comprising about 0.137 M NaCl, about 5.4 mM KCl, about 0.25 mM Na2HPO4, about 0.1 g Glucose, about 0.44 mM KH2PO4, 1.3 mM CaCl2), 1.0 mM MgSO4, about 1.3 mM CaCl2), 1.0 mM MgSO4, and about 4.2 mM NaHCO3) and diluted in series (e.g., in a 1:10 serial dilution) to a final 1:1000 dilution.
# One μL (microliter) of SYTO 9 stain (e.g., ThermoFisher Scientific) working stock solution was added to the final dilution at a final concentration of 5 μM and incubated for 5 minutes before counting bacterial events by acoustic flow cytometer (AFC) (Attune, ThermoFisher, Eugene, Oreg., USA), which was used to prepare a standardised inoculum density for susceptibility testing.
# as §1
# One millilitre of bacterial suspension from each antibiotic concentration was harvested by centrifugation at 7800×g for 5 minutes, washed and diluted 1:10 in filtered HBSS in a light-impermeable microcentrifuge tube, then stained with SYTO 9 stain at a final concentration of 5 μM, and incubated for 5 min before AFC sampling. Hoechst 33342 dye (NucBlue, Thermo Fisher Scientific, Eugene, Oreg., USA) and a SYTO 9/propidium iodide (PI) combination (Thermo Fisher Scientific) were used in a series of replicate experiments.
# The acoustic flow cytometer employed was Attune acoustic flow cytometer (Thermo Fisher Scientific), having installed therein a 488 nm blue laser with a 530/30 nm filter on the photomultiplier tube for measuring fluorescence of cells assayed. Alternatively, the Attune NxT acoustic flow cytometer (Thermo Fisher Scientific) can be employed. AFC was calibrated at the beginning of each acquisition session using fluorescently labelled size calibration beads, in accordance with the manufacturer's instructions (ThermoFisher Scientific). The AFC settings were as follows: Forward Scatter (FSC) voltage 3100, FSC threshold 4×1000 AND, blue laser 1 (BL1—530/30 nm) voltage 1900, BL1 threshold 1×1000 AND, high sensitivity, flow rate 25 μL/minute, and an acquisition volume of 125 μL. Acquisition was halted after either collection of 20,000 events across all gates, or after 3 minutes, with each sample acquired in technical triplicate.
# Collected data was exported in the FCS 3.0 file format and analysed in Flow v10.0 (FlowJo LLC, Ashland, Oreg., USA) by a single user, blinded to the MIC results by BMD (MICBMD).
# Subsequent to quantitative MICFAST determination, the acoustic flow cytometer data were re-analysed in silico to produce a limited sub-set for qualitative susceptibility determination. The six antibiotic dilutions (0 mg/L, 0.25 mg/L, 1 mg/L, 2 mg/L, 4 mg/L and 16 mg/L) most relevant to qualitative susceptibility assessment were used. In silico analysis was restricted to the first technical triplicate of each recorded sample. Gating strategies remained consistent, with the addition of a gate restricting analysis to only those events recorded in the first 60 seconds of acquisition.
# Staphylococcus aureus [3] = test: Broth microdilution (BMD) MIC of Staphylococcus aureus isolates; format: cell-based
# From the text: The acoustic flow cytometry assisted method of the present invention was employed essentially as described in the previous working examples to determine susceptibility of Staphylococcus aureus to both cefoxitin and oxacillin. Susceptibility classification into S/NS and quantitative MIC values obtained using the acoustic flow cytometry assisted method were compared to results obtained using the conventional broth microdilution (BMD) method. Results are shown in Table 4 (Panels A and B) below and in FIGS. 9-12.
# Staphylococcus aureus [4] = test: Acoustic flow cytometry-assisted susceptibility test (FAST) of Staphylococcus aureus isolates; format: cell-based; set-up: MIC dilution at which susceptibility-associated signature is observed by AFC: unit not given beside the values
# Experimental: The material and methods utilized are briefly outlined herein below. The method used was similar to that outlined in the earlier examples albeit adjusted to allow for 3 hour incubation of Staphylococcus aureus to account for longer doubling times of Staphylococcus aureus relative to K. pneumoniae used in the previous examples.
# Events were acquired by forward scatter and BL1 (515 nm-545 nm) using the Attune with voltages and thresholding set as follows: Forward Scatter Voltage: 3050; Forward Scatter Threshold: 3×1000 AND; Side Scatter Voltage: 2950; Side Scatter Threshold: IGNORE; BL1 Voltage: 1500; BL1 Threshold: 1×1000 AND.
# Nine mL of MHB was aliquoted into twelve, 50 mL Falcon tubes. Each tube was labelled with the required final test concentration of antibiotic. […] Tubes were transferred to a 35° C. incubator to pre-warm.
# One 1 mL of the overnight bacterial suspension was transferred into a 1.5 mL microcentrifuge tube and centrifuge at 7,800×g for about 5 minutes. The supernatant was discarded, and the pellet re-suspended in 1 mL of 0.1 μm filtered HBSS. This step was optionally repeat.
# About 900 μL of HBSS was dispended into three 1.5 mL tubes—two clear tubes and one amber tube. About 100 μL of the bacterial suspension was inoculated into the first tube (clear) and serially dilute to reach 1:1000 by the third tube (amber). About 1 μl of SYTO 9 (5 μM final concentration) was added to the third tube. The dye was incubated, protected from light, for at least 5 minutes (individual sample types were optionally required with longer incubations) and then the Stained Control on the Attune acoustic flow cytometer instrument was read
# The event density (events/μL) from your stained control aliquots was used to calculate the inoculum volume required to produce a 5.5×10^5 bacteria mL-1 in 10 mL of MHB. For example, (400 events/A)/(10 mL×550000)=7.3 μL, rounded up to the closest 10 μL.
# The required volume of bacterial suspension was added from the overnight culture into each 50 ml tube with 9 ml of preheated MHB. Optionally incubate with shaking and protected from light, at 100 RPM at 35° C. for 60 minutes.
# MHB (0.1 μm filtered) was used to dilute the antibiotics in this preparation. About one aliquot of antibiotic was removed from the −20° C. freezer and equilibrated to room temperature by ambient heat exchange, and diluted to reach a range of working stock concentrations that were are ten times the desired test concentrations.
# Once the 60-minute incubation of bacterial suspension was complete, about 1 mL of 10× antibiotic stocks were added to tubes containing bacterial suspensions to reach final desired test concentrations (1 ml antibiotic and total volume 10 ml). The 50 mL tubes were returned to the incubator and incubated, by shaking at 100 RPM at 35° C., for a further 3 hours.
# After 3 hours, about 1 mL suspension was harvested from each tube and transferred to a 1.5 mL clear microcentrifuge tube (marked with the corresponding antibiotic concentration), then centrifuge at 7,800×g for 5 minutes. The supernatant discarded and the pellet resuspended in 1 mL of 0.1 μm filtered HBSS. This wash step was optionally repeated.
# Using the computer connected to the Attune, new samples were created ready for the collection of data. That the following parameters were set: Sensitivity: High Sensitivity; Flow Rate: 25 μL/minute; Acquisition Volume: 125 μL; Events Collected: No less than 20,000 from all gates, Time: 1 minute.
# About 899 μL HBSS was dispensed into one 1.5 mL amber tube per sample. About 100 μL of suspension per tube was added to achieve a 1 in 10 dilution. About 1 μl of SYTO 9 was added to each tube and the tube vortexed for no more than 2 seconds (over vortexing can lead to bacterial clustering and/or attachment to tube walls).
# Samples were placed on the SIP and acquired, in technical triplicate, as per the parameters outlined above. […]
# [5] = K. pneumoniae ATCC 700603 (carbapenem susceptible control)
# [6] = K. pneumoniae ATCC BAA1705 (carbapenem resistant control)
# [7] = S. aureus isolate ATCC 29213, MSSA
# [8] = S. aureus isolate W0096111, MSSA
# [9] = S. aureus isolate W0226111, MSSA
# [10] = S. aureus isolate W0236111, MSSA
# [11] = S. aureus isolate W0296111, MSSA
# [12] = S. aureus isolate W0816111, MSSA
# [13] = S. aureus isolate W0866111, MRSA
# [14] = S. aureus isolate W6496111, MSSA
# [15] = S. aureus isolate W9196111, MSSA
# [16] = S. aureus isolate W9346111, MRSA
# [17] = S. aureus isolate W . . . 6111, MRSA
# [18] = S. aureus isolate WACC 98, MRSA
smiles,measurement,setting,value
"C[C@@H](O)[C@H]1C(=O)N2C(C(=O)O)=C(S[C@@H]3CN[C@H](C(=O)Nc4cccc(C(=O)O)c4)C3)[C@H](C)[C@H]12 [Analytical Ertapenem, ertapenem]",MICBMD,Klebsiella isolates [1]; [5],≤0.25
same,MICBMD,Klebsiella isolates [1]; [6],>16
same,MICFAST,Klebsiella isolates [2]; [5],≤0.25
same,MICFAST,Klebsiella isolates [2]; [6],>16
"C[C@@H](O)[C@H]1C(=O)N2C(C(=O)O)=C(SCCN=CN)C[C@H]12 [Analytical Imipenem, imipenem]",MICBMD,Klebsiella isolates [1]; [5],2
same,MICBMD,Klebsiella isolates [1]; [6],>16
same,MICFAST,Klebsiella isolates [2]; [5],1
same,MICFAST,Klebsiella isolates [2]; [6],>16
"CO[C@@]1(NC(=O)Cc2cccs2)C(=O)N2C(C(=O)O)=C(COC(N)=O)CS[C@@H]21 [Cefoxitin, cefoxitin]",MIC (BMD),Staphylococcus aureus [3]; [7],4 µg/mL
same,MIC (BMD),Staphylococcus aureus [3]; [8],2 µg/mL
same,MIC (BMD),Staphylococcus aureus [3]; [9],2 µg/mL
same,MIC (BMD),Staphylococcus aureus [3]; [10],2 µg/mL
same,MIC (BMD),Staphylococcus aureus [3]; [11],4 µg/mL
same,MIC (BMD),Staphylococcus aureus [3]; [12],2 µg/mL
same,MIC (BMD),Staphylococcus aureus [3]; [13],32 µg/mL
same,MIC (BMD),Staphylococcus aureus [3]; [14],4 µg/mL
same,MIC (BMD),Staphylococcus aureus [3]; [15],2 µg/mL
same,MIC (BMD),Staphylococcus aureus [3]; [16],32 µg/mL
same,MIC (BMD),Staphylococcus aureus [3]; [17],16 µg/mL
same,MIC (BMD),Staphylococcus aureus [3]; [18],128 µg/mL
same,MIC dilution at which susceptibility-associated signature is observed by AFC,Staphylococcus aureus [4]; S. aureus ATCC 29213,4
same,MIC dilution at which susceptibility-associated signature is observed by AFC,Staphylococcus aureus [4]; S. aureus WACC 98,128
same,MIC (FAST),Staphylococcus aureus [4]; [7],2 µg/mL
same,MIC (FAST),Staphylococcus aureus [4]; [8],4 µg/mL
same,MIC (FAST),Staphylococcus aureus [4]; [9],2 µg/mL
same,MIC (FAST),Staphylococcus aureus [4]; [10],4 µg/mL
same,MIC (FAST),Staphylococcus aureus [4]; [11],4 µg/mL
same,MIC (FAST),Staphylococcus aureus [4]; [12],2 µg/mL
same,MIC (FAST),Staphylococcus aureus [4]; [13],16 µg/mL
same,MIC (FAST),Staphylococcus aureus [4]; [14],4 µg/mL
same,MIC (FAST),Staphylococcus aureus [4]; [15],4 µg/mL
same,MIC (FAST),Staphylococcus aureus [4]; [16],32 µg/mL
same,MIC (FAST),Staphylococcus aureus [4]; [17],16 µg/mL
same,MIC (FAST),Staphylococcus aureus [4]; [18],64 µg/mL
